Assay results: patent publication US9363996B2, “Compositions and method for blocking ethylene response in field crops using 3-(cy-clopropyl-l-enyl)-propanoic salt” (Yissum Research Development Company of the Hebrew …, priority 2009, dated 2016)

Columns and labels:
pKa and ionisation state = format: physicochemical
From the text: The IR spectrum (FIG. 60), UV-VIS spectrum (FIG. 61), and potentiometric titration (FIG. 62) are all consistent with the structure given above for WS-CPD. The IR peak of WS-CPD at C1=1773 cm^−1, and the peak of the C═O stretch in the IR and the UV-VIS peak is λmax 206nm.
Thus, under the normal conditions of use, e.g., pH 7.6-7.8, more than 99% of the compound is present in the anion form. […] The XRD pattern was obtained in a Rigaku Ultima sealed tube theta-theta diffractometer operating at a power level of 1.6 kW, with a step size of 0.02°, angular range of 10-60°, and speed of 0.5°/min. Analysis of the XRD pattern was performed using the Jade 8 program (MDI, Inc.). From the diffraction pattern, it appears that the powdered material is not homogeneous, but rather that there appear to be three distinct structural forms present, namely, an amorphous form, a poor quality crystalline form, and a crystalline form. The presence of the amorphous form is indicated by the prominent diffuse peak centered at 2θ˜23°. Superimposed on this broad peak are a number of sharp peaks, indicating the presence of a crystalline form. […] The effective crystallite sizes of the crystalline form were calculated using the Scherrer formula and found to be in the range of 300-700 Å. […] The following volume fractions were measured: amorphous—57.5%; poorly crystalline—39.5%; crystalline—3%. […]

tobacco seedlings = assay: Ethylene-induced leaf yellowing (senescence) of young tobacco seedlings; format: in vivo, tobacco (Nicotiana tabacum var. 'Samsun'); conditions: for ethylene-induced senescence (leaf yellowing): ethylene 10 μL L^−1
Experimental: (1) Abscission—This is a very sensitive model system for studying the effects of plant hormones. Ethylene induces the process of abscission, while auxin delays it. In the laboratory the experimental system is based on plant organ explants, which include the abscission zone. Abscission is induced by exposure to ethylene and at the termination of the experiment the number of abscised organs, usually either leaf blades or petioles are counted and the fraction of abscission is calculated. In the case of fruit, the decrease in fruit retention force is analyzed. In cotton, when WS-CPD (the ethylene-action antagonist herein disclosed) is tested, the whole plants or explants are pretreated by spraying with the antagonist, dissolved in a phosphate buffer solution (10-20 mM, pH 7.0) including 0.1% commercially available Kinetic™ as surfactant, and left to incubate for a predetermined time, usually between 6 and 24 h. The plants or explants are then further exposed for 24 h to ethylene gas (5 to 20 μL L^−1). The plants or explants are then ventilated and incubated for the required time under controlled conditions. At the end of the experiment the percentage of abscission is determined. (2) Chlorophyll degradation—This is a standard model for studying senescence. Plant material (whole plants, excised leaves or leaf discs) are pretreated. In cotton, tobacco and wheat, when WS-CPD is tested, the whole plants or explants are pretreated by spraying with the antagonist, dissolved in phosphate buffer solution (10-20 mM, pH 7.0) including 0.1% commercially available Kinetic™ surfactant, and left to incubate for a predetermined time, usually between 6 and 241. […] At the end of the experiment a dimethylsulfoxide (DMSO) extract of the plant tissue is prepared, and the chlorophyll content of the extract is determined by spectrophotometric analysis. […] The extent of ethylene-induced epinasty of leaves is determined by measuring the change of the angle between the petiole and the stem shoot or blade. […]

pKa (pKa and ionisation state; ambient temperature): > 4.5 | fraction of the compound present in the anion form (pKa and ionisation state; pH 7.6-7.8): more than 99%
Structure (SMILES): O=C([O-])CCC1=CC1.[Na+] [WS-CPD, 3-cyclopropyl-1-enyl-propanoic sodium salt]
ethylene-induced senescence (leaf yellowing) (tobacco seedlings; WS-CPD 14 μg mL^−1): antagonized the ethylene-induced senescence only in mature leaves | ethylene-induced senescence (leaf yellowing) (tobacco seedlings; WS-CPD 127 μg mL^−1, young leaves): slightly effective | leaf yellowing (tobacco seedlings; WS-CPD 14 to 127 μg mL^−1, ethylene 20 μL L^−1): very significantly inhibited
